Experimental data: patent US20200261497A1, “Iodinated Contract Medium for Use as a Medicament for Thyroid Radioprotection” (priority 2017, published 2020)

How the values were obtained:
mouse thyroid = test: 99m-pertechnetate uptake by the mouse thyroid (microSPECT/CT); format: in vivo
Description: (§1) FIG. 3: Effect of Iomeron on the uptake of ^99m-pertechnetate by the mouse thyroid and salivary glands. SPECT/CT imaging of mice administered 20 MBq ^99m-pertechnetate was performed (day 0). At the end of the scan, Iomeron was administered intravenously. One, four, eight, twelve and eighteen days later, animals were injected with 20 MBq ^99m-pertechnetate and new scans were performed. The data presented represent the percentage of radiotracer injected taken up by the thyroid (A) and salivary glands (B). (n=3 per condition). ***p<0.001; n.s: non statistically significant.
FIG. 5: Effect of KI on the uptake of ^99m-pertechnetate by the mouse thyroid and salivary glands. SPECT/CT imaging of mice administered 20 MBq ^99m-pertechnetate was performed (day 0). Animals were injected intraperitoneally with KI (9 mg in 180 μL) and scanned 30 minutes later. Twenty-four hours later, animals were injected with 20 MBq ^99m-pertechnetate and new scans were performed. The data presented represent the percentage of radiotracer injected taken up by the thyroid (A) and salivary glands (B). (n=3 per condition). *p<0.05; ***p<0.001.
FIG. 7: Evaluation of the effect of different modes of administration of Iomeron on the uptake of ^99m-pertechnetate by the thyroid. SPECT/CT imaging of mice administered 20 MBq ^99m-pertechnetate was performed (day 0). At the end of the scan, intravenous, sublingual, enteral, and intraperitoneal administrations of Iomeron were performed. Four days later, animals were injected with 20 MBq ^99m-pertechnetate and new scans were performed. The data presented represent the percentage of radiotracer injected taken up by the thyroid (A) and salivary glands (B). (n=2 per condition). ***p<0.001.
FIG. 9: Effect of Telebrix, Optiray and Omnipaque on the uptake of ^99mpertechnetate by the mouse thyroid. SPECT/CT imaging of mice administered 20 MBq ^99mpertechnetate was performed (day 0). At the end of the scan, mice received a sublingual administration […] of Telebrix or Optiray, or Omnipaque. Two days later, animals were injected with 20 MBq ^99mpertechnetate and new scans were performed. The data presented represent the percentage of radiotracer injected taken up by the thyroid. (n=3 per condition). ***p<0.001; n.s: non statistically significant. % IA: percentage of the injected activity.
Eight-week-old female C57B/6J mice were obtained from Janvier (Le Genest Saint Isle, France). Animal housing and procedures were conducted according to French Agriculture Ministry guidelines and were approved by the local ethics committee (Ciepal NCE/2014-211).
Intravenous and intraperitoneal administration was performed by injecting 100 μL Iomeron diluted 50/50 (vol/vol) with phosphate-buffered saline (corresponding to 18 mg iomeprol). Enteral administration was performed by gavage of 100 μL Iomeron diluted 50/50 (vol/vol) with phosphate-buffered saline (corresponding to 18 mg iomeprol). Sublingual administration was performed on anesthetized mice by five sublingual depositions of 5 μL Iomeron, with a delay of 10 minutes between two administrations. This procedure led to the administration of […] iomeprol.
^99mTc pertechnetate (^99mTcO4^−) was obtained from a freshly eluted ^99Mo/^99mTc generator. Animals were administered intraperitoneally with activities of 20 MBq ^99mTcO4^−. Thyroid and salivary gland tracer uptake was measured at different times using a dedicated microSPECT/CT scanner (eXplore speCZT CT120, GE) under gas anesthesia (air and 1-2% isoflurane) in an air-warmed imaging chamber (Minerve, Esternay, France) to maintain body temperature at 37° C. The SPECT scanner uses a stationary full ring of CZT detectors and a rotating 7-pinhole (1 mm opening) collimator. A total of 350 projections were acquired over 360° in 8 minutes. Images were reconstructed using the manufacturer's 3D-OSEM algorithm (5 subsets and 11 iterations), which incorporates the system's collimator-detector response function and scatter correction. […]

thyroid = conditions: KI tablets, prevention of 131-I entry into the thyroid; cited from earlier work
mouse salivary glands = test: 99m-pertechnetate uptake by the mouse salivary glands (microSPECT/CT); format: in vivo
Description: as §1
FIG. 5: Effect of KI on the uptake of ^99m-pertechnetate by the mouse thyroid and salivary glands. […]
^99mTc pertechnetate (^99mTcO4^−) was obtained from a freshly eluted ^99Mo/^99mTc generator. […] Thyroid and salivary gland tracer uptake was measured at different times using a dedicated microSPECT/CT scanner (eXplore speCZT CT120, GE) under gas anesthesia (air and 1-2% isoflurane) in an air-warmed imaging chamber (Minerve, Esternay, France) to maintain body temperature at 37° C. […] Reconstructed images were analyzed and quantified using AMIDE software (Loening and Gambhir, 2003). Tracer activities in the various relevant organs were calculated. […] Uptakes were expressed as percentages of the injected dose (% ID) after decay correction (Cambien et al., 2014).

NIS [1] = test: NIS expression in mouse thyroid glands (immunohistochemistry, Western blot); format: in vivo; conditions: four days after intravenous injection
Description: (§2) FIG. 6: Analysis of NIS expression in the thyroid and salivary glands in response to Iomeron. Saline buffer (A, C) or Iomeron (B, D) were administered intravenously. Four days later, animals were culled and NIS expression in the thyroid glands (A, B) and salivary glands (C, D) were analyzed by immunohistochemistry (n=3 per group). Thyroids and salivary glands were also processed for Western blot analysis of NIS and β-actin expression (n=2 per group).
(§3) Thyroid membrane proteins were subjected to SDS-PAGE electrophoresis as previously described (Cambien et al., 2014). Western blotting was performed with antibody 25 anti-mouse NIS, an affinity-purified rabbit immunoreactive serum fraction, or with an anti-β-actin antibody (Sigma).
(§4) After culling the animals, thyroids and salivary glands were dissected, paraffin embedded, and cut into 4-μm-thick sections. The paraffin was then removed and the sections were rehydrated and subjected to an antigen retrieval treatment with a solution of citrate buffer, pH 6, using an automate (PT Link, Dako). Immunostaining was performed following a standard protocol (Dako EnVision™ FLEX using an automated immunostainer, Autostainer, Dako). Endogenous peroxide was blocked using the EnVision™ FLEX Peroxidase-Blocking Reagent. […]

human thyroid = test: 99mTcO4- scintigraphy of the human thyroid; format: in vivo; conditions: patient, intravenous injection two weeks before scintigraphy
Description: (§5) FIG. 4: Effect of Iomeron on the uptake of ^99m-pertechnetate by the human thyroid and salivary glands. Scintigraphies of a naïve patient (A) or a patient who has been administered with Iomeron two weeks before the scintigraphy. SG: salivary glands; T: thyroid; R: right; L: left.
(§6) A “naïve” patient and a patient who had received an intravenous injection of Iomeron 350 two weeks before scintigraphy were involved. On the day of the scintigraphy, patients were injected intravenously with an activity of 1 MBq/kg and 600 s scans was performed 15 min later.

HT29-NIS cells = test: 125I iodide uptake in HT29-NIS cells; format: cell-based, human; conditions: one hour incubation with 125I, Iomeron 100 μL corresponding to 70 mg of iomeprol
Description: (§7) FIG. 2: Effect of Iomeron on iodide uptake of established cell lines expressing NIS. HT29-NIS (A) or PCCL3 (B) cells were incubated for one hour with ^125I in the presence of an equal volume of either saline, Iomeron (100 μL corresponding to 70 mg of iomeprol), NaI or perchlorate. Cells were then rapidly washed with saline buffer and lysed. Aliquots of lysates were counted in a y counter. The results are expressed as percentage of uptake in the control condition. The data presented are the mean±SEM of triplicates and are representative of three independent experiments. n.s: non statistically significant.
(§8) The human colorectal cancer cell line HT-29 (HTB-38, ATCC) was transfected with pcDNA3.1-mNIS (murine NIS) (Perron et al., 2001) using the FuGENE 6 reagent (Roche) according to the manufacturer's instructions. Stable clones were selected by addition of 1 mg/mL geneticin (G418) to the medium 3 days after transfection. One clone with high functional expression of NIS was selected (Richard-Fiardo et al., 2012). The rat follicular thyroid cell line PCCL3 was obtained from Dr. A. De La Vieja (Madrid, Spain) and cultured as previously described (Leoni et al., 2011). Measurement of in vitro iodide uptake was performed as previously described (Groot-Wassink et al., 2002).
(§9) We next examined whether iomeprol and its contaminating free iodide could affect iodide uptake in NIS-expressing cell lines. HT29-NIS (a human colorectal carcinoma cell line expressing NIS) (FIG. 2A) or PCCL3 (a rat follicular thyroid cell line) (FIG. 2B) cells were incubated with ^125I in the presence of either saline buffer, Iomeron, NaI, or perchlorate (NaClO4). After one hour, cells were washed and cellular ^125I content was determined.

PCCL3 cells = test: 125I iodide uptake in PCCL3 cells; format: cell-based, rat; conditions: one hour incubation with 125I, Iomeron 100 μL corresponding to 70 mg of iomeprol
Description: as §7, §8, §9

human salivary glands = test: 99mTcO4- scintigraphy of the human salivary glands; format: in vivo; conditions: patient, intravenous injection two weeks before scintigraphy
Description: as §5, §6

NIS [2] = test: NIS expression in mouse salivary glands (immunohistochemistry, Western blot); format: in vivo; conditions: four days after intravenous injection
Description: as §2, §3, §4

[3] = after intravenous administration, scans on days 1, 4, 8, 12, 18

## [I-].[K+] [KI, potassium iodide]
Mouse thyroid; 30 minutes after intraperitoneal injection (9 mg in 180 μL)
  ability of the thyroid to take up pertechnetate: reduced
Mouse thyroid; 24 hours after intraperitoneal injection (9 mg in 180 μL)
  ability of the thyroid to take up pertechnetate: recovered
thyroid
  duration of the protective effect: 24 h

## CN(C(=O)CO)c1c(I)c(C(=O)NCC(O)CO)c(I)c(C(=O)NCC(O)CO)c1I (stereo not drawn) [Iomeron, iomeprol]
Mouse salivary glands; after intravenous administration, same animals
  uptake by the salivary glands: failed to affect iodide uptake
Mouse salivary glands; intravenous, sublingual, enteral or intraperitoneal administration, four days later
  uptake to the salivary glands: not affected in any condition
NIS [1]
  NIS expression in thyroids, immunohistological analysis: hardly detectable
NIS [1]; compared with controls
  NIS expression in the thyroid glands, western blot: dramatic decrease
Human thyroid
  pertechnetate uptake in the thyroid: lack of fixation in the thyroid region
HT29-NIS cells
  iodide uptake (125I): failed to affect this uptake significantly
Mouse thyroid; 24 hours after intravenous administration
  radiotracer uptake by the thyroid: dramatic reduction
Mouse thyroid; [3]
  duration of low thyroid uptake capacity: remained low for eight days
  recovery of thyroid uptake capacity: recovery was observed from day 12
Mouse thyroid; enteral administration (gavage, 18 mg iomeprol), four days later
  radiotracer uptake by the thyroid: neither enteral nor intraperitoneal administration affected radiotracer uptake
Mouse thyroid; intraperitoneal administration (18 mg iomeprol), four days later
  radiotracer uptake by the thyroid: neither enteral nor intraperitoneal administration affected radiotracer uptake
Mouse thyroid; intravenous administration (18 mg iomeprol), four days later
  radiotracer uptake by the thyroid: marked reduction
Mouse thyroid; sublingual administration (9 mg iomeprol), four days later
  radiotracer uptake by the thyroid: marked reduction
PCCL3 cells
  iodide uptake (125I): failed to affect this uptake significantly
Human salivary glands
  pertechnetate uptake in the salivary glands: radiotracer uptake in the salivary glands
NIS [2]
  NIS expression in ductal cells of the salivary glands, immunohistological analysis: detectable
NIS [2]; compared with controls
  NIS expression in the salivary glands, western blot: no significant difference

## [O-][Cl+3]([O-])([O-])O [perchlorate]
HT29-NIS cells
  iodide uptake (125I): inhibited iodide uptake
PCCL3 cells
  iodide uptake (125I): inhibited iodide uptake

## [I-].[Na+] [NaI]
HT29-NIS cells
  iodide uptake (125I): inhibited iodide uptake
PCCL3 cells
  iodide uptake (125I): inhibited iodide uptake
